According to patent US7550456B2, “Substituted aryl cycloalkanoyl derivatives and methods of their use” (Wyeth, priority 2003, dated 2009):
Where a name gives a salt, the structure may show the parent alone.

Target: T1, human hNET (Homo sapiens, UniProt P23975)
T1 construct: expressed in transfected cells; host or cells: MDCK-Net6 (MDCK cells, stably transfected)
Experiment: Norepinephrine (NE) uptake assay in MDCK-Net6 cells
Format: cell-based
Settings: [3H]NE uptake; for inhibition at 1 µM: 1 μM test compound, read-out: % Inhibition @ 1 μM (hNET); for inhibition at 10 µM: 10 μM test compound (stated in the cell)
Procedure, shortened: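 Radiolabelled NE uptake was counted by scintillation after NaOH lysis, with 1 µM desipramine defining non-specific uptake. EC50 came from a logistic dose-response fit.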

T1 sequence (P23975 whole entry): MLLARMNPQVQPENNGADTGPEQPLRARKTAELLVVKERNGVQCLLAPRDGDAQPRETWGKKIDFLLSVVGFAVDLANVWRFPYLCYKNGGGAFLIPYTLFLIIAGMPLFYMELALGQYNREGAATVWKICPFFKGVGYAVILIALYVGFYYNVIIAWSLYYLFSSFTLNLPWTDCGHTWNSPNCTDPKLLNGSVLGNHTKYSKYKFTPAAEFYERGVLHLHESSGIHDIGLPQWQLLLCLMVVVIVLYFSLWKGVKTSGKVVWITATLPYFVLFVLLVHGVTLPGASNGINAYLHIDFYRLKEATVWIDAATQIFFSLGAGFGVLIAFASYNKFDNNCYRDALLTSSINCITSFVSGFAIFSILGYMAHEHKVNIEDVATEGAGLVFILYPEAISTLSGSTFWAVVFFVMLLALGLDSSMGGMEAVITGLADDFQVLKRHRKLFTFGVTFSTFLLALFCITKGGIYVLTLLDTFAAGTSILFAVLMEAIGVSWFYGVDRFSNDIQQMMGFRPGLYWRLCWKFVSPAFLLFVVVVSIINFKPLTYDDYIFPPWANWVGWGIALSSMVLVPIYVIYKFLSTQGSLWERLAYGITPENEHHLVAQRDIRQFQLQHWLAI

Compound | inhibition at 1 µM | inhibition at 10 µM
C#Cc1cccc(C(CN2CCNCC2)C2(O)CCCCC2)c1 (stereo not drawn) [Example 298, 1-[1-(3-ethynylphenyl)-2-piperazin-1-ylethyl]cyclohexanol dihydrochloride] | 91% | –
C#Cc1cccc(C(CN2CCN(C)CC2)C2(O)CCCCC2)c1 (stereo not drawn) [Example 299, 1-[1-(3-ethynylphenyl)-2-(4-methylpiperazin-1-yl)ethyl]cyclohexanol dihydrochloride] | 95% | –
CC#Cc1cccc(C(CN2CCNCC2)C2(O)CCCCC2)c1 (stereo not drawn) [Example 300, 1-[2-piperazin-1-yl-1-(3-prop-1-ynylphenyl)ethyl]cyclohexanol dihydrochloride] | 38% | –
CC#Cc1cccc(C(CN2CCN(C)CC2)C2(O)CCCCC2)c1 (stereo not drawn) [Example 301, 1-[2-(4-methylpiperazin-1-yl)-1-(3-prop-1-ynylphenyl)ethyl]cyclohexanol dihydrochloride] | 23% | –
OC1(C(CN2CCNCC2)c2cccc(Oc3ccccc3)c2)CCCCC1 (stereo not drawn) [Example 311, 1-[1-(3-phenoxyphenyl)-2-piperazin-1-ylethy]cyclohexanol dihydrochloride] | 86.2% | –
CN1CCN(CC(c2cccc(Oc3ccccc3)c2)C2(O)CCCCC2)CC1 (stereo not drawn) [Example 312, 1-[2-(4-methylpiperazin-1-yl)-1-(3-phenoxyphenyl)ethy]cyclohexanol dihydrochloride] | 57.3% | –
OC1(C(CN2CCN(CC3CCCCC3)CC2)c2cccc(Oc3ccccc3)c2)CCCCC1 (stereo not drawn) [Example 313, 1-[2-[4-(cyclohexylmethyl)piperazin-1-yl]-1-(3-phenoxyphenyl)ethyl]cyclohexanol dihydrochloride] | 57.3% | –
CN1CCN(C[C@@H](c2ccc(OCc3ccccc3)c(Cl)c2)C2(O)CCCCC2)CC1 [Example 325, 1-[(1R)-1-[4-(benzyloxy)-3-chlorophenyl]-2-(4-methylpiperazin-1-yl)ethyl]cyclohexanol dihydrochloride] | 93.9% | –
CC(CCN1CCN(C[C@H](c2cccc(OC(F)(F)F)c2)C2(O)CCCCC2)CC1)c1ccccc1 (stereo partly drawn) [Example 347, 1-{(1S)-2-[4-(3-phenylbutyl)piperazin-1-yl]-1-[3-(trifluoromethoxy)phenyl]ethyl}cyclohexanol dihydrochloride] | 92% | –
CCC1CN(C[C@H](c2cccc(OC(F)(F)F)c2)C2(O)CCCCC2)CCN1 (stereo partly drawn) [Example 350, 1-{(1S)-2-(3-ethylpiperazin-1-yl)-1-[3-(trifluoromethoxy)phenyl]ethyl}cyclohexanol dihydrochloride] | 79% | –
CC(C)N1CCN(CC(c2cccc(OC(F)(F)F)c2)C2(O)CCCCC2)CC1 (stereo not drawn) [Example 362, 1-{2-(4-isopropylpiperazin-1-yl)-1-[3-(trifluoromethoxy)phenyl]ethyl}cyclohexanol dihydrochloride] | 51% | –

Further lines, results first:

inhibition at 1 µM | inhibition at 10 µM | Compound
4% | – | CN1CCN(CC(c2ccc(-c3cc(Cl)cc(Cl)c3)cc2)C2(O)CCC2)CC1 (stereo not drawn) [Example 297, 1-[1-(3′,5′-dichloro-1,1′-biphenyl-4-yl)-2-(4-methylpiperazin-1-yl)ethyl]cyclobutanol dihydrochloride]
50% | – | OC1(C(CN2CCCN(Cc3ccccc3)CC2)c2ccc(OC(F)(F)F)cc2)CCCCC1 (stereo not drawn) [Example 302, 1-{2-(4-benzyl-1,4-diazepan-1-yl)-1-[4(trifluoromethoxy)phenyl]ethyl}cyclohexanol dihydrochloride]
41% | – | OC1(C(CN2CCNCC2)c2ccc(OC(F)(F)F)cc2)CCC1 (stereo not drawn) [Example 304, 1-{2-piperazin-1-yl-1-[4-(trifluoromethoxy)phenyl]ethyl}cyclobutanol dihydrochloride]
– | 44.5% | OC1(C(CN2CCNCC2)c2ccc(Oc3ccccc3)cc2)CCCCC1 (stereo not drawn) [Example 307, 1-[1-(4-phenoxyphenyl)-2-piperazin-1-ylethyl]cyclohexanol dihydrochloride]
– | 35.9% | CN1CCN(CC(c2ccc(Oc3ccccc3)cc2)C2(O)CCCCC2)CC1 (stereo not drawn) [Example 308, 1-[2-(4-methylpiperazin-1-yl)-1-(4-phenoxyphenyl)ethy]cyclohexanol dihydrochloride]
19.7% | – | OC1(C(CN2CCN(CC3CCCCC3)CC2)c2ccc(Oc3ccccc3)cc2)CCCCC1 (stereo not drawn) [Example 309, 1-[2-[4-(cyclohexylmethyl)piperazin-1-yl]-1-(4-phenoxyphenyl)ethyl]cyclohexanol dihydrochloride]
97.2% | – | CN1CCN(CC(c2ccc(OCc3ccccc3)cc2)C2(O)CCCCC2)CC1 (stereo not drawn) [Example 322, 1-[2-(4-Methyl-1-piperazinyl)-1-[4-phenylmethoxy)phenyl]ethyl]cyclohexanol dihydrochloride]
95.8% | – | OC1([C@@H](CN2CCNCC2)c2ccc(OCc3ccccc3)c(Cl)c2)CCCCC1 [Example 323, 1-{(1R)-1-[4-(benzyloxy)-3-chlorophenyl]-2-piperazin-1-ylethyl}cyclohexanol dihydrochloride]
98.4% | – | OC1([C@H](CN2CCNCC2)c2ccc(OCc3ccccc3)c(Cl)c2)CCCCC1 [Example 324, 1-{(1S)-1-[4-(benzyloxy)-3-chlorophenyl]-2-piperazin-1-ylethyl}cyclohexanol dihydrochloride]
99.7% | – | CN1CCN(C[C@H](c2ccc(OCc3ccccc3)c(Cl)c2)C2(O)CCCCC2)CC1 [Example 326, 1-[(1S)-1-[4-(benzyloxy)-3-chlorophenyl]-2-(4-methylpiperazin-1-yl)ethyl]cyclohexanol dihydrochloride]
91% | – | C[C@H]1CN(C[C@H](c2cccc(OC(F)(F)F)c2)C2(O)CCCCC2)CCN1 [Example 348, 1-{(1S)-2-[(3S)-3-methylpiperazin-1-yl]-1-[3-(trifluoromethoxy)phenyl]ethyl}cyclohexanol dihydrochloride]
82% | – | C[C@H]1CN(C[C@H](c2cccc(OC(F)(F)F)c2)C2(O)CCCCC2)CCN1C [Example 349, 1-{(1S)-2-[(3S)-3,4-dimethylpiperazin-1-yl]-1-[3-(trifluoromethoxy)phenyl]ethyl}cyclohexanol dihydrochloride]
61% | – | CC[C@H]1CN(C[C@H](c2cccc(OC(F)(F)F)c2)C2(O)CCCCC2)CCN1C [Example 351, 1-{(1S)-2-[(3S)-3-ethyl-4-methylpiperazin-1-yl]-1-[3-(trifluoromethoxy)phenyl]ethyl}cyclohexanol dihydrochloride]
68% | – | CC[C@@H]1CN(C[C@H](c2cccc(OC(F)(F)F)c2)C2(O)CCCCC2)CCN1C [Example 352, 1-{(1S)-2-[(3R)-3-ethyl-4-methylpiperazin-1-yl]-1-[3-(trifluoromethoxy)phenyl]ethyl}cyclohexanol dihydrochloride]
42% | – | C[C@@H](c1ccccc1)N1CCN(C[C@H](c2cccc(OC(F)(F)F)c2)C2(O)CCCCC2)CC1 [Example 363, 1-{(1S)-2-{4-[(1S)-1-phenylethyl]piperazin-1-yl}-1-[3-(trifluoromethoxy)phenyl]ethyl}cyclohexanol dihydrochloride]
94% | – | C[C@@H]1CN(C[C@H](c2cccc(OC(F)(F)F)c2)C2(O)CCCCC2)C[C@H](C)N1 [Example 367, 1-{(1S)-2-[(3R,5S)-3,5-dimethylpiperazin-1-yl]-1-[3-(trifluoromethoxy)phenyl]ethyl}cyclohexanol dihydrochloride]
